By logP is commonly meant a log measure of how a compound divides between an organic and an aqueous phase. The low end stands for a more hydrophilic compound, the high end for a more lipophilic compound.

The nature of the data set: logP. The settings on record: intermediate amines of formula (II). Type of data set: physicochemical.
In turn, `c1ccc2c(c1)SCCC2NC1CC1` (racemic) [Example 177] displayed a logP of 0.67. `c1ccc2c(c1)OCCC2NC1CC1` (stereo not shown) [Example 175] showed a logP of 0.32. The figure for `CC1(C)CC(NC2CC2)c2ccccc21` (stereo not shown) [Example 174] is 1.15; for `COc1cc2c(cc1OC)C(NC1CC1)C(C)(C)CO2` (stereo not shown) [Example 167] it is 1.22; for `Clc1ccc2c(c1)C(NC1CC1)CCO2` (stereo not shown) [Example 176] it is 0.83.

Take `CC1Cc2ccccc2C1NC1CC1` (stereo not shown) [Example 171]: the logP is 0.81. For the compound `CC1(C)CCC(NC2CC2)c2ccccc21` (racemic) [Example 178], the logP was 1.26.

The values are drawn from patent US9102588B2, “Fungicide N-cycloalkyl-N-bicyclic-carboxamide derivatives” (priority 2007, dated 2015).
